One may read the pIC50 as the IC50 on a negative log10 scale, so that one unit is a factor of ten. What is called inhibition is the relative decrease from the control value, in per cent.

Drawing on patent US7501430B2 (ArQule, Inc., priority 2006, dated 2009), this text covers IC50 and inhibition for 29 molecules.

Each structure is given as a SMILES string. pIC50: −log10 of the molar value.

For the first experiment, the target named is T1, mutant B-RAF (Homo sapiens, UniProt P15056, V600E).
T1 construct: purchased Upstate (Charlottesville, Va.)
T1 sequence (P15056 whole entry V600E): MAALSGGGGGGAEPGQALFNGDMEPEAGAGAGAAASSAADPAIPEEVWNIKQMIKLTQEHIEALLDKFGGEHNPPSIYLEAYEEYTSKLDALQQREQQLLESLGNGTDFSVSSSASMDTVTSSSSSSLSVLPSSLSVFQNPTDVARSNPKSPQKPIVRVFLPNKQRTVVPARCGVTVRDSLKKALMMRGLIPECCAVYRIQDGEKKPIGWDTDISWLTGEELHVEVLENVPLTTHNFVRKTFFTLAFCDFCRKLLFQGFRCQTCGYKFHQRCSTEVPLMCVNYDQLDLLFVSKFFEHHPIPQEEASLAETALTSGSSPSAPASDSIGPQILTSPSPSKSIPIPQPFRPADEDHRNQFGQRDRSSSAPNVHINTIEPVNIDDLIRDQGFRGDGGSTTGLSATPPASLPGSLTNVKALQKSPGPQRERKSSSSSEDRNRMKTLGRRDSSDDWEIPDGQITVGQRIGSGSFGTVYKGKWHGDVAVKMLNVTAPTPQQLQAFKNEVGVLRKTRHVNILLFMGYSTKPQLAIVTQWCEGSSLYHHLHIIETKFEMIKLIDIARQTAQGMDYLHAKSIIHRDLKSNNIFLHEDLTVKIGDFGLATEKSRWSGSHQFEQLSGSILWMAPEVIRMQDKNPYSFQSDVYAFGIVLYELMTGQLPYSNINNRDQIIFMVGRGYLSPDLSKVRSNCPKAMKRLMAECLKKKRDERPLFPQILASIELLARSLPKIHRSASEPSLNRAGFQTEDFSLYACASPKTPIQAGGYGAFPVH
In words: RAF biochemical assay (MEK-1 phosphorylation, anti-phospho MEK1/2 detection).
Conditions: not given
The procedure, abridged:
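Detection is by ELISA: after a 30 min room-temperature reaction, plate-captured GST-MEK-1 is probed with anti-phospho MEK1/2, then an AP-tagged secondary antibody with fluorescent Attophos read-out.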
Molecule `O=C(c1ccc(F)cc1)N1CCC[C@@H](Nc2nccc(-c3c(-c4ccc(F)cc4)nc4occn34)n2)C1` [Example 28, N-[(3R)-1-(4-fluorobenzoyl)piperidin-3-yl]-4-[6-(4-fluorophenyl)imi-dazo[2,1-b][1,3]oxazol-5-yl]pyrimidin-2-amine] gave a pIC50 of 6.74.

Molecule `CC(C)CC(=O)N1CCC[C@@H](Nc2nccc(-c3c(-c4ccc(F)cc4)nc4occn34)n2)C1` [Example 40, 4-[6-(4-fluorophenyl)imi-dazo[2,1-b][1,3]oxazol-5-yl]-N-[(3R)-1-(3-methylbuta-noyl)piperidin-3-yl]pyrimidin-2-amine] had a pIC50 of 6.85.

Staying with this experiment, now noted: @ 10 uM; read-out: Mutant B-RAF % inhibition.
`COc1cccc(-c2nc3sccn3c2-c2ccnc(NC3CCN(C(=O)NCc4ccccc4)CC3)n2)c1` [Example 233, N-benzyl-4-({4-[6-(3-methoxyphenyl)imidazo[2,1-b][1,3]thiazol-5-yl]pyrimidin-2-yl}amino)piperidine-1-carboxamide]: the inhibition at 10 µM came out at 53%.

Consider `Fc1ccc(-c2nc3sccn3c2-c2ccnc(NC3CCNCC3)n2)cc1F` [Example 223, 4-[6-(3,4-difluorophenyl)imidazo[2,1-b][1,3]thiazol-5-yl]-N-piperidin-4-ylpyrimidin-2-amine], for which the inhibition at 10 µM was found to be 71%.

Turning to `O=C(Nc1ccc(F)cc1)N1CCC(Nc2nccc(-c3c(-c4ccc(F)cc4)nc4sccn34)n2)CC1` [Example 295, N-(4-fluorophenyl)-4-({4-[6-(4-fluorophenyl)imidazo[2,1-b][1,3]thiazol-5-yl]pyrimidin-2-yl}amino)piperidine-1-carboxamide], the inhibition at 10 µM was determined as 49%.

For `COc1ccc(Cl)cc1NC(=O)N1CCC[C@@H](Nc2nccc(-c3c(-c4ccc(F)cc4)nc4occn34)n2)C1` [Example 70, (3R)-N-(5-chloro-2-methoxyphenyl)-3-({4-[6-(4-fluorophenyl)imidazo[2,1-b][1,3]oxazol-5-yl]pyrimidin-2-yl}amino)piperidine-1-carboxamide], the inhibition at 10 µM amounted to 49%.

`Cc1nc(S(=O)(=O)N2CCC[C@@H](Nc3nccc(-c4c(-c5ccc(F)cc5)nc5occn45)n3)C2)cn1C` [Example 66, N-{(3R)-1-[(1,2-dimethyl-1H-imidazol-4-yl)sulfonyl]piper-idin-3-yl}-4-[6-(4-fluorophenyl)imidazo[2,1-b][1,3]oxazol-5-yl]pyrimidin-2-amine]: the inhibition at 10 µM is 70%.

For `COc1cccc(-c2nc3sccn3c2-c2ccnc(N[C@@H]3CCCN(S(=O)(=O)c4cccc(OC)c4)C3)n2)c1` [Example 142, 4-[6-(3-methoxyphenyl)imidazo[2,1-b][1,3]thiazol-5-yl]-N-{(3R)-1-[(3-methoxyphenyl)sulfonyl]piperidin-3-yl}pyrimidin-2-amine], the inhibition at 10 µM stood at 56%.

`COc1ccc(-c2nc3sccn3c2-c2ccnc(N[C@@H]3CCCNC3)n2)cc1` [Example 106, 4-[6-(4-methoxyphenyl)imidazo[2,1-b][1,3]thiazol-5-yl]-N-[(3R)-piperidin-3-yl]pyrimidin-2-amine]: the inhibition at 10 µM was 27%.

Staying with this experiment, now noted: read-out: Mutant B-RAF % inhibition.
On to `O=S(=O)(c1cccc(F)c1)N1CCC[C@@H](Nc2nccc(-c3c(-c4ccc(F)cc4)nc4occn34)n2)C1` [Example 52, 4-[6-(4-fluorophenyl)imi-dazo[2,1-b][1,3]oxazol-5-yl]-N-{(3R)-1-[(3-fluorophenyl)sulfonyl]piperidin-3-yl}pyr-imidin-2-amine], for which the inhibition at 10 µM is 55%.

Still in this experiment, the particulars now being: read-out: Mutant B-RAF IC50.
Turning to `O=S(=O)(c1ccc(Cl)cc1)N1CCC[C@H](Nc2nccc(-c3c(-c4cccc(O)c4)nc4sccn34)n2)C1` [Example 140, 3-{5-[2-({(3S)-1-[(4-chlorophenyl)sulfonyl]piperidin-3-yl}amino)pyrimidin-4-yl]imidazo[2,1-b][1,3]thiazol-6-yl}phenol], the negative logarithm of the IC50 (pIC50) was 6.02.

With `O=S(=O)(c1ccc(Cl)cc1)N1CCC[C@@H](Nc2nccc(-c3c(-c4ccc(Cl)c(O)c4)nc4sccn34)n2)C1` [Example 101, 2-chloro-5-{5-[2-({(3R)-1-[(4-chlorophenyl)sulfonyl]piperidin-3-yl}amino)pyrimidin-4-yl]imidazo[2,1-b][1,3]thiazol-6-yl}phenol], the pIC50 was 7.96.

For the molecule `O=C(NS(=O)(=O)c1ccc(Cl)cc1)N1CCC(Nc2nccc(-c3c(-c4cccc(O)c4)nc4occn34)n2)CC1` [Example 323, N-[(4-chlorophenyl)sulfonyl]-4-({4-[6-(3-hydroxyphenyl)imidazo[2,1-b][1,3]oxazol-5-yl]pyrimidin-2-yl}amino)piperidine-1-carboxamide], the pIC50 was 5.91.

For the molecule `CS(=O)(=O)N1CCC(Nc2nccc(-c3c(-c4cccc(O)c4)nc4occn34)n2)CC1` [Example 342, 3-[5-(2-{[1-(methylsulfonyl)piperidin-4-yl]amino}pyrimidin-4-yl)imidazo[2,1-b][1,3]oxazol-6-yl]phenol], the pIC50 was 6.59.

For `CCCOC(=O)N1CCC(Nc2nccc(-c3c(-c4cccc(O)c4)nc4sccn34)n2)CC1` [Example 387, propyl 4-({4-[6-(3-hydroxyphenyl)imidazo[2,1-b][1,3]thiazol-5-yl]pyrimidin-2-yl}amino)piperidine-1-carboxylate], the pIC50 was under 5.52.

Consider `NCCCC(=O)Nc1ccccc1-c1nc2sccn2c1-c1ccnc(N[C@@H]2CCCN(S(=O)(=O)c3ccc(Cl)cc3)C2)n1` [Example 136, 4-amino-N-(2-{5-[2-({(3R)-1-[(4-chlorophenyl)sulfonyl]piperidin-3-yl}amino)pyrimidin-4-yl]imidazo[2,1-b][1,3]thiazol-6-yl}phenyl)butanamide], for which the pIC50 was under 5.52.

Take `CCNC(=O)Nc1cccc(-c2nc3sccn3c2-c2ccnc(N[C@@H]3CCCN(S(=O)(=O)c4ccc(Cl)cc4)C3)n2)c1` [Example 347, 1-(3-{5-[2-({(3R)-1-[(4-chlorophenyl)sulfonyl]piperidin-3-yl}amino)pyrimidin-4-yl]imidazo[2,1-b][1,3]thiazol-6-yl}phenyl)-3-ethyl urea]: the negative logarithm of the IC50 (pIC50) was 6.26.

For `CCNC(=O)N1CCC(Nc2nccc(-c3c(-c4ccc(F)c(F)c4)nc4sccn34)n2)CC1` [Example 218, 4-({4-[6-(3,4-difluorophenyl)imidazo[2,1-b][1,3]thiazol-5-yl]pyrimidin-2-yl}amino)-N-ethylpiperidine-1-carboxamide], the pIC50 is 5.91.

As to `NS(=O)(=O)Oc1cccc(-c2nc3occn3c2-c2ccnc(N[C@@H]3CCCN(S(=O)(=O)c4ccc(Cl)cc4)C3)n2)c1` [Example 380, 3-{5-[2-({(3R)-1-[(4-chlorophenyl)sulfonyl]piperidin-3-yl}amino)pyrimidin-4-yl]imidazo[2,1-b][1,3]oxazol-6-yl}phenyl sulfamate], the pIC50 was 5.80.

As for `O=S(=O)(c1cc(C(F)(F)F)cc(C(F)(F)F)c1)N1CCC(Nc2nccc(-c3c(-c4ccc(F)cc4)nc4occn34)n2)CC1` [Example 207, N-(1-{[3,5-bis(trifluoro-methyl)phenyl]sulfonyl}piperidin-4-yl)-4-[6-(4-fluorophenyl)imidazo[2,1-b][1,3]oxazol-5-yl]pyrimidin-2-amine], the negative-log IC50 (pIC50) is 7.57.

`O=S(=O)(c1ccc(Cl)cc1)N1CCC(Nc2nccc(-c3c(-c4ccc(F)cc4)nc4occn34)n2)CC1` [Example 199, N-{1-[(4-chlorophenyl)sulfonyl]piperidin-4-yl}-4-[6-(4-fluorophenyl)imidazo[2,1-b][1,3]oxazol-5-yl]pyrimidin-2-amine]: the pIC50 was 7.04.

In the case of `O=C(c1ccncc1)N1CCC[C@@H](Nc2nccc(-c3c(-c4cccc(O)c4)nc4sccn34)n2)C1` [Example 117, 3-[5-(2-{[(3R)-1-isonicotinoylpiperidin-3-yl]amino}pyrimidin-4-yl)imidazo[2,1-b][1,3]thiazol-6-yl]phenol], the pIC50 was 6.48.

Consider `COc1cccc(-c2nc3sccn3c2-c2ccnc(NC3CCN(S(=O)(=O)c4ccc(Cl)cc4)CC3)n2)c1` [Example 263, N-{1-[(4-chlorophenyl)sulfonyl]piperidin-4-yl}-4-[6-(3-methoxyphenyl)imidazo[2,1-b][1,3]thiazol-5-yl]pyrimidin-2-amine], for which the pIC50 is under 5.30.

Regarding `N#Cc1cccc(-c2nc3sccn3c2-c2ccnc(NC3CCN(S(=O)(=O)c4ccc(Cl)cc4)CC3)n2)c1` [Example 269, 3-{5-[2-({1-[(4-chlorophenyl)sulfonyl]piperidin-4-yl)amino)pyrimidin-4-yl]imidazo[2,1-b][1,3]thiazol-6-yl}benzonitrile], the pIC50 was 5.79.

For `O=C(Nc1ccc(F)cc1)N1CCC[C@@H](Nc2nccc(-c3c(-c4cccc(O)c4)nc4sccn34)n2)C1` [Example 335, (3R)-N-(4-fluorophenyl)-3-({4-[6-(3-hydroxyphenyl)imidazo[2,1-b][1,3]thiazol-5-yl]pyrimidin-2-yl}amino)piperidine-1-carboxamide], the negative logarithm of the IC50 (pIC50) is 5.49.

`O=C(c1ccc(F)cc1)N1CCC(Nc2nccc(-c3c(-c4ccc(F)cc4)nc4occn34)n2)CC1` [Example 181, N-[1-(4-fluorobenzoyl)piperidin-4-yl]-4-[6-(4-fluorophenyl)imidazo[2,1-b][1,3]oxazol-5-yl]pyrimidin-2-amine]: the pIC50 was 5.57.

Consider `O=C(O)CCc1ccc(S(=O)(=O)N2CCC(Nc3nccc(-c4c(-c5cccc(O)c5)nc5sccn45)n3)CC2)cc1` [Example 273, 3-(4-{[4-({4-[6-(3-hydroxyphenyl)imidazo[2,1-b][1,3]thiazol-5-yl]pyrimidin-2-yl}amino)piperidin-1-yl]sulfonyl}phenyl)propanoic acid], for which the pIC50 is 8.00.

Take `Cc1cn2c(-c3ccnc(NC4CCN(S(=O)(=O)c5ccc(F)cc5)CC4)n3)c(-c3ccc(F)cc3)nc2s1` [Example 219, 4-[6-(4-fluorophenyl)-2-methylimidazo[2,1-b][1,3]thiazol-5-yl]-N-{1-[(4-fluorophenyl)sulfonyl]piperidin-4-yl}pyrimidin-2-amine]: the pIC50 was 7.29.

In the case of `COc1ccc(S(=O)(=O)N2CCC(Nc3nccc(-c4c(-c5ccc(F)cc5)nc5occn45)n3)CC2)cc1` [Example 200, 4-[6-(4-fluorophenyl)imidazo[2,1-b][1,3]oxazol-5-yl]-N-{1-[(4-methoxyphenyl)sulfonyl]piperidin-4-yl}pyrimidin-2-amine], the pIC50 was 6.94.
